From PubChem BioAssay AID192 (DTP/NCI, 2004)
Values joined by “and” are separate entries in the source; they are usually repeats but may differ in a detail not shown here. Identical values can stand only once. Toxic doses and inconclusive results are not listed.

System: BDF1 mice, B16 melanoma ip, median survival T/C
Experiment: NCI In Vivo Anticancer Drug Screen. Data for tumor model B16 Melanoma (intraperitoneal) in B6D2F1 (BDF1) mice
Settings: endpoint: median survival time, higher = longer survival
Procedure, shortened: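 Each result divides a survival or tumor-size measurement in the compound-treated group by the same measurement in the vehicle group.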

[1] = dose: 100.0 mg/kg/injection, schedule: Q01DX009 (ip), vehicle: Klucel (hydroxypropylcellulose) (HPC)
[2] = dose: 1.56 mg/kg/injection, schedule: Q01DX009 (ip), vehicle: Klucel (hydroxypropylcellulose) (HPC)
[3] = dose: 50.0 mg/kg/injection, schedule: Q01DX009 (ip), vehicle: Klucel (hydroxypropylcellulose) (HPC)
[4] = dose: 100.0 mg/kg/injection, schedule: Q01DX009 (ip), vehicle: saline
[5] = dose: 200.0 mg/kg/injection, schedule: Q01DX009 (ip), vehicle: Klucel (hydroxypropylcellulose) (HPC)
[6] = dose: 200.0 mg/kg/injection, schedule: Q01DX009 (ip), vehicle: saline
[7] = dose: 400.0 mg/kg/injection, schedule: Q01DX009 (ip), vehicle: Klucel (hydroxypropylcellulose) (HPC)
[8] = dose: 400.0 mg/kg/injection, schedule: Q01DX009 (ip), vehicle: saline
[9] = dose: 1.56 mg/kg/injection, schedule: Q01DX009 (ip), vehicle: saline
[10] = dose: 3.12 mg/kg/injection, schedule: Q01DX009 (ip), vehicle: saline
[11] = dose: 6.25 mg/kg/injection, schedule: Q01DX009 (ip), vehicle: saline
[12] = dose: 12.5 mg/kg/injection, schedule: Q01DX009 (ip), vehicle: Klucel (hydroxypropylcellulose) (HPC)
[13] = dose: 25.0 mg/kg/injection, schedule: Q01DX009 (ip), vehicle: saline with Tween-80
[14] = dose: 50.0 mg/kg/injection, schedule: Q01DX009 (ip), vehicle: saline with Tween-80
[15] = dose: 100.0 mg/kg/injection, schedule: Q01DX009 (ip), vehicle: saline with Tween-80
[16] = dose: 25.0 mg/kg/injection, schedule: Q01DX009 (ip), vehicle: saline
[17] = dose: 50.0 mg/kg/injection, schedule: Q01DX009 (ip), vehicle: saline
[18] = dose: 25.0 mg/kg/injection, schedule: Q01DX009 (ip), vehicle: Klucel (hydroxypropylcellulose) (HPC)
[19] = dose: 12.5 mg/kg/injection, schedule: Q01DX009 (ip), vehicle: saline

CCC(C)C(=O)OC1C(=O)OC2CC3C(C)=CC(=O)C(O)C3(C)C3C4(O)OCC23C1C(C)C4O (stereo not given)
T/C (dose: 1.4 mg/kg/injection, schedule: Q01DX009 (ip), vehicle: saline): 157 % of control | T/C (dose: 2.8 mg/kg/injection, schedule: Q01DX009 (ip), vehicle: saline with Tween-80): 153 % of control

O=P(CCCCCCP(=O)(N1CC1)N1CC1)(N1CC1)N1CC1
T/C [1]: 176 % of control

O=C1C=CC(=O)c2c(O)c(CO)c(CO)c(O)c21
T/C (dose: 0.39 mg/kg/injection, schedule: Q01DX009 (ip), vehicle: Klucel (hydroxypropylcellulose) (HPC)): 98 % of control | T/C (dose: 0.78 mg/kg/injection, schedule: Q01DX009 (ip), vehicle: Klucel (hydroxypropylcellulose) (HPC)): 89 % of control | T/C [2]: 87 % of control

Cc1cc(C)c([I+]c2c(C)cc(C)cc2C)c(C)c1
T/C (dose: 1.5 mg/kg/injection, schedule: Q01DX009 (ip), vehicle: suspension in saline): 103 % of control | T/C (dose: 3.0 mg/kg/injection, schedule: Q01DX009 (ip), vehicle: Klucel (hydroxypropylcellulose) (HPC)): 91 % of control | T/C (dose: 3.0 mg/kg/injection, schedule: Q01DX009 (ip), vehicle: suspension in saline): 95 % of control | T/C (dose: 6.0 mg/kg/injection, schedule: Q01DX009 (ip), vehicle: Klucel (hydroxypropylcellulose) (HPC)): 91 % of control | T/C (dose: 6.0 mg/kg/injection, schedule: Q01DX009 (ip), vehicle: suspension in saline): 100 % of control

C=C(C)/C([O-])=N/[N+](C)(C)CC(O)CCCCCCCCCCCC (stereo not given)
T/C (dose: 25.0 mg/kg/injection, schedule: Q01DX001 (ip), vehicle: saline): 91 % of control | T/C (dose: 50.0 mg/kg/injection, schedule: Q01DX001 (ip), vehicle: saline): 95 % of control

CC(C)(C)CC(N)=O
T/C [3]: 112 % of control | T/C [1]: 100 % of control | T/C [4]: 107 % of control | T/C [5]: 105 % of control | T/C [6]: 123 % of control | T/C [7]: 105 % of control | T/C [8]: 107 % of control

Cn1c(=O)c2[nH]c(Cc3cccc(O)c3)nc2n(C)c1=O
T/C (dose: 3.12 mg/kg/injection, schedule: Q01DX009 (ip), vehicle: suspension in saline): 94 % of control | T/C (dose: 6.25 mg/kg/injection, schedule: Q01DX009 (ip), vehicle: suspension in saline): 96 % of control | T/C (dose: 100.0 mg/kg/injection, schedule: Q01DX009 (ip), vehicle: suspension in saline): 94 % of control

COc1cccc(OC)c1OC(=O)/C=C\C(=O)Oc1c(OC)cccc1OC
T/C (dose: 75.0 mg/kg/injection, schedule: Q01DX009 (ip), vehicle: Klucel (hydroxypropylcellulose) (HPC)): 100 % of control | T/C (dose: 150.0 mg/kg/injection, schedule: Q01DX009 (ip), vehicle: Klucel (hydroxypropylcellulose) (HPC)): 100 % of control | T/C (dose: 300.0 mg/kg/injection, schedule: Q01DX009 (ip), vehicle: Klucel (hydroxypropylcellulose) (HPC)): 100 % of control

COc1ccc(/C=N/n2c3ccccc3c3ccccc32)cc1OCCCN(C)C
T/C (dose: 0.39 mg/kg/injection, schedule: Q01DX009 (ip), vehicle: saline): 120 % of control | T/C (dose: 0.78 mg/kg/injection, schedule: Q01DX009 (ip), vehicle: saline): 102 % of control | T/C [9]: 112 % of control | T/C [10]: 105 % of control | T/C [11]: 105 % of control | T/C [12]: 97 % of control

COc1ccc(C[C@H](N)C(=O)NC2C(CO)OC(n3cnc4c(N(C)C)ncnc43)C2O)cc1 (stereo not given in full)
T/C (dose: 4.0 mg/kg/injection, schedule: Q01DX009 (ip), vehicle: saline): 114 % of control | T/C (dose: 8.0 mg/kg/injection, schedule: Q01DX009 (ip), vehicle: saline): 107 % of control | T/C (dose: 16.0 mg/kg/injection, schedule: Q01DX009 (ip), vehicle: saline): 109 % of control | T/C (dose: 32.0 mg/kg/injection, schedule: Q01DX009 (ip), vehicle: saline): 110 % of control and 114 % of control | T/C (dose: 40.0 mg/kg/injection, schedule: Q01DX009 (ip), vehicle: saline): 108 % of control

CSC(=S)N/N=C/c1ccccn1
T/C (dose: 0.75 mg/kg/injection, schedule: Q01DX009 (ip), vehicle: saline with Tween-80): 86 % of control | T/C (dose: 1.5 mg/kg/injection, schedule: Q01DX009 (ip), vehicle: saline with Tween-80): 89 % of control | T/C (dose: 3.0 mg/kg/injection, schedule: Q01DX009 (ip), vehicle: saline with Tween-80): 86 % of control | T/C (dose: 6.0 mg/kg/injection, schedule: Q01DX009 (ip), vehicle: saline with Tween-80): 94 % of control | T/C (dose: 12.5 mg/kg/injection, schedule: Q01DX009 (ip), vehicle: saline with Tween-80): 110 % of control | T/C [13]: 105 % of control

Cc1cc(C)cc(OC(=O)/C=C/C(=O)Oc2cc(C)cc(C)c2)c1
T/C [13]: 98 % of control | T/C [14]: 87 % of control | T/C [15]: 93 % of control

CC(C)OCc1c(N)nc(=S)[nH]c1C(=O)O
T/C [16]: 92 % of control | T/C [17]: 86 % of control

O=c1oc(-c2ccco2)nc2ccccc12
T/C [3]: 112 % of control | T/C [1]: 106 % of control | T/C [5]: 112 % of control

CCCC1(C)COB(c2ccc(C)cc2)OC1
T/C [18]: 93 % of control | T/C [3]: 90 % of control | T/C [1]: 97 % of control | T/C [5]: 86 % of control | T/C [7]: 90 % of control

CCOc1ccc(/C=N\N=C\c2ccc(OCC)cc2)cc1
T/C [1]: 95 % of control | T/C [5]: 90 % of control and 110 % of control

O=C(O)c1ccc(SSc2ccc(C(=O)O)cn2)nc1
T/C [1]: 88 % of control | T/C (dose: 100.0 mg/kg/injection, schedule: Q04DX003 (ip), vehicle: Klucel (hydroxypropylcellulose) (HPC)): 93 % of control | T/C [5]: 100 % of control | T/C (dose: 200.0 mg/kg/injection, schedule: Q04DX003 (ip), vehicle: Klucel (hydroxypropylcellulose) (HPC)): 97 % of control | T/C [7]: 88 % of control | T/C (dose: 400.0 mg/kg/injection, schedule: Q04DX003 (ip), vehicle: Klucel (hydroxypropylcellulose) (HPC)): 90 % of control

C/C=C/CC(C/C=C/C)C1CC[N-]CC1.C/C=C/CC(C/C=C/C)C1CC[N-]CC1.[Cl][Pt+2]([Cl])([Cl])[Cl]
T/C (dose: 1.56 mg/kg/injection, schedule: Q01DX009 (ip), vehicle: other): 97 % of control | T/C (dose: 3.13 mg/kg/injection, schedule: Q01DX009 (ip), vehicle: other): 97 % of control | T/C (dose: 6.25 mg/kg/injection, schedule: Q01DX009 (ip), vehicle: other): 100 % of control | T/C (dose: 12.5 mg/kg/injection, schedule: Q01DX009 (ip), vehicle: other): 97 % of control | T/C (dose: 25.0 mg/kg/injection, schedule: Q01DX009 (ip), vehicle: other): 96 % of control

Cc1ccc(C)c(C(=O)CCCCl)c1
T/C [13]: 118 % of control | T/C [14]: 97 % of control | T/C [15]: 113 % of control

Cc1ccccc1NC(=O)c1cc2ccccc2cc1O
T/C [15]: 110 % of control | T/C (dose: 200.0 mg/kg/injection, schedule: Q01DX009 (ip), vehicle: saline with Tween-80): 110 % of control | T/C (dose: 400.0 mg/kg/injection, schedule: Q01DX009 (ip), vehicle: saline with Tween-80): 107 % of control

CCCCCCCC(=O)CCC
T/C [1]: 105 % of control | T/C [5]: 96 % of control

N#CCc1ccccc1S(=O)(=O)O
T/C [4]: 103 % of control | T/C [6]: 104 % of control | T/C [8]: 104 % of control

CCCC(Cc1ccccc1)N1CCCC1 (stereo not given)
T/C [9]: 105 % of control | T/C [10]: 100 % of control | T/C [11]: 92 % of control | T/C [19]: 115 % of control | T/C [16]: 102 % of control

CN(C)CC/C=C1\c2ccccc2CSc2ccccc21
T/C [10]: 90 % of control and 100 % of control | T/C [11]: 89 % of control and 100 % of control | T/C [19]: 97 % of control | T/C [16]: 104 % of control | T/C [17]: 95 % of control and 102 % of control

O=c1oc2c3ccccc3c3ccccc3c2o1
T/C [2]: 100 % of control | T/C (dose: 3.12 mg/kg/injection, schedule: Q01DX009 (ip), vehicle: Klucel (hydroxypropylcellulose) (HPC)): 96 % of control | T/C (dose: 6.25 mg/kg/injection, schedule: Q01DX009 (ip), vehicle: Klucel (hydroxypropylcellulose) (HPC)): 113 % of control | T/C [12]: 106 % of control | T/C [18]: 86 % of control and 96 % of control
